# Columns and labels:
# [1] = species on record: Homo sapiens; assay: The compound was tested in vitro for the anti-HBV activity against 2.2.15 cells; type: functional, cell-based; settings: HepG2 2.2.15
# [2] = The compound was tested for the cytotoxicity against peripheral blood mononuclear (PBM)cells; type: functional, cell-based; settings: Homo sapiens
# [3] = The compound was tested in vitro for the anti-HIV activity against peripheral blood mononuclear (PBM)cells; type: functional; settings: Homo sapiens
# [4] = tested on: Vero; assay: The compound was tested for the cytotoxicity against Vero cells; type: functional, cell-based; settings: Chlorocebus sabaeus
# [5] = tested on: CCRF-CEM; assay: The compound was tested for the cytotoxicity against CEM cells; type: functional, cell-based; settings: Homo sapiens
# [6] = species on record: Homo sapiens; assay: The compound was tested in vitro for the anti-HBV activity in 2.2.15 cells; type: functional, cell-based; settings: HepG2 2.2.15
# [7] = The compound was tested in vitro for the anti-HIV activity in peripheral blood mononuclear (PBM) cells; type: functional; settings: Homo sapiens
# [8] = The compound was tested for the cytotoxicity against peripheral blood mononuclear (PBM) cells; type: functional, cell-based; settings: Homo sapiens
SMILES,EC50 [1] [µM],IC50 [2] [µM],EC50 [3] [µM],IC50 [4] [µM],IC50 [5] [µM],EC50 [6] [µM],EC50 [7] [µM],EC90 [3] [µM],IC50 [8] [µM]
O=c1ccn(C2CCC(CO)C2)c(=O)[nH]1 (stereo not drawn),> 10,> 100,> 100,> 100,> 100,–,–,–,–
Cc1cn([C@@H]2C=C[C@H](CO)C2)c(=O)[nH]c1=O,> 10,66.6,> 100,49.4,> 100,–,–,–,–
O=c1ccn([C@@H]2C=C[C@H](CO)C2)c(=O)[nH]1,> 10,> 100,> 100,> 100,> 100,–,–,–,–
Nc1ncnc2c1ncn2[C@@H]1C=C[C@H](CO)C1,0.9,> 100,2.4,> 100,> 100,–,–,–,–
Cc1cn(C2CCC(CO)C2)c(=O)[nH]c1=O (stereo not drawn),> 10,> 100,> 100,171,> 100,–,–,–,–
Nc1ncnc2c1ncn2C1CCC(CO)C1 (stereo not drawn),> 50,> 100,27,> 100,> 100,–,–,–,–
COC1O[C@H]2[C@H](COC(C)(C)C)C[C@H](n3cnc4c(Cl)ncnc43)[C@H]2O1 (stereo partly drawn),> 10,> 100,> 100,> 100,> 100,–,–,–,–
OC[C@H]1C=C[C@@H](n2cnc3c(O)ncnc32)C1,> 10,> 100,> 100,> 100,> 100,–,–,–,–
OC[C@H]1CC[C@@H](n2cnc3c(O)ncnc32)C1,–,> 100,–,> 100,> 100,> 10,> 100,–,–
Nc1nc(O)c2ncn([C@@H]3C=C[C@H](CO)C3)c2n1,> 200,–,> 200,–,–,–,–,–,–
Nc1ccn([C@@H]2C=C[C@H](CO)C2)c(=O)n1,> 10,> 100,38.8,> 100,> 100,–,–,65.9,–
OC[C@H]1C=C[C@@H](n2cnc3c(S)ncnc32)C1,–,–,–,> 100,> 100,> 10,> 100,–,> 100

# — ChEMBL document CHEMBL1132363, “Asymmetric synthesis and antiviral activities of L-carbocyclic 2', 3'-didehydro-2',3'-dideoxy and 2',3'-dideoxy nucleosides” (J Med Chem, 1999)
